{"source": "patent US6525001B1", "about": "“Substituted pyrimidine and pyridine herbicides” (Mid-American Commercialization Corporation, priority 1997, dated 2003)", "assay_type_in_all_cases": "in vivo", "set-up_in_all_cases": "key: 0 is no effect; 10 is complete control", "key": {"[1]": {"tested_on": "bedstraw (Galium aparine)", "experiment": "Test B pre-/postemergence", "conditions": "Rate 125 g/ha, Preemergence", "source_text": "(§1) Seeds of bedstraw (Galium aparine), blackgrass (Alopecurus myosuroides), broadleaf signalgrass (Brachiaria decumbens), cocklebur (Xanthium strumarium), corn (Zea mays), crabgrass (Digitaria sanguinalis), giant foxtail (Setaria faberii), lambsquarters (Chenopodium album), momingglory (Ipomoea hederacea), pigweed (Amaranthus retroflexus), rape (Brassica napus), soybean (Glycine max), sugar beet (Beta vulgaris), velvetleaf (Abutilon theophrasti), wheat (Triticum aestivum), wild oat (Avena fatua) and purple nutsedge (Cyperus rotundus) tubers were planted and treated preemergence with test chemicals formulated in a non-phytotoxic solvent mixture which included a surfactant.\n(§2) At the same time, these crop and weed species were also treated with postemergence applications of test chemicals formulated in the same manner. Plants ranged in height from 2 to 18 cm (1- to 4-leaf stage) for postemergence treatments. Plant species in the flood test consisted of rice (Oryza sativa), smallflower flatsedge (Cyperus difformis), duck salad (Heteranthera limosa) and bamyardgrass (Echinochloa crus-galli) grown to the 2-leaf stage for testing. Treated plants and controls were maintained in a greenhouse for twelve to sixteen days, after which all species were compared to controls and visually evaluated. Plant response ratings, summarized in Table B, are based on a scale of 0 to 10 where 0 is no effect and 10 is complete control. A dash (−) response means no test result."}, "[2]": {"tested_on": "blackgrass (Alopecurus myosuroides)", "experiment": "Test B pre-/postemergence", "conditions": "for Plant response rating, Blackgrass: Preemergence; for Blackgrass plant response rating: Postemergence", "source_text": "as §1, §2"}, "[3]": {"tested_on": "broadleaf signalgrass (Brachiaria decumbens)", "experiment": "Test B pre-/postemergence", "source_text": "as §1, §2"}, "[4]": {"tested_on": "cocklebur (Xanthium strumarium)", "experiment": "Test B pre-/postemergence", "conditions": "for Cocklebur plant response rating: Postemergence", "source_text": "as §1, §2"}, "corn (Zea mays)": {"tested_on": "corn (Zea mays)", "experiment": "Test B pre-/postemergence", "conditions": "for Plant response rating, Corn: Preemergence; for Corn plant response rating: Postemergence", "source_text": "as §1, §2"}, "[5]": {"tested_on": "crabgrass (Digitaria sanguinalis)", "experiment": "Test B pre-/postemergence", "conditions": "for Plant response rating, Crabgrass: Preemergence; for Crabgrass plant response rating: Postemergence", "source_text": "as §1, §2"}, "[6]": {"tested_on": "giant foxtail (Setaria faberii)", "experiment": "Test B pre-/postemergence", "conditions": "for Plant response rating, Giant foxtail: Preemergence; for Giant foxtail plant response rating: Postemergence", "source_text": "as §1, §2"}, "[7]": {"tested_on": "momingglory (Ipomoea hederacea)", "experiment": "Test B pre-/postemergence", "conditions": "for Plant response rating, Morningglory: Preemergence; for Morningglory plant response rating: Postemergence", "source_text": "as §1, §2"}, "[8]": {"tested_on": "pigweed (Amaranthus retroflexus)", "experiment": "Test B pre-/postemergence", "conditions": "for Plant response rating, Redroot pigweed: Preemergence; for Redroot pigweed plant response rating: Postemergence", "source_text": "as §1, §2"}, "rape (Brassica napus)": {"tested_on": "rape (Brassica napus)", "experiment": "Test B pre-/postemergence", "conditions": "for Plant response rating, Rape: Preemergence; for Rape plant response rating: Postemergence", "source_text": "as §1, §2"}, "soybean (Glycine max)": {"tested_on": "soybean (Glycine max)", "experiment": "Test B pre-/postemergence", "conditions": "for Plant response rating, Soybean: Preemergence; for Soybean plant response rating: Postemergence", "source_text": "as §1, §2"}, "[9]": {"tested_on": "sugar beet (Beta vulgaris)", "experiment": "Test B pre-/postemergence", "conditions": "for Plant response rating, Sugarbeets: Preemergence; for Sugarbeets plant response rating: Postemergence", "source_text": "as §1, §2"}, "[10]": {"tested_on": "velvetleaf (Abutilon theophrasti)", "experiment": "Test B pre-/postemergence", "conditions": "for Velvetleaf plant response rating: Postemergence", "source_text": "as §1, §2"}, "[11]": {"tested_on": "wheat (Triticum aestivum)", "experiment": "Test B pre-/postemergence", "conditions": "for Plant response rating, Wheat: Preemergence; for Wheat plant response rating: Postemergence", "source_text": "as §1, §2"}, "wild oat (Avena fatua)": {"tested_on": "wild oat (Avena fatua)", "experiment": "Test B pre-/postemergence", "conditions": "for Plant response rating, Wild oats: Preemergence; for Wild oats plant response rating: Postemergence", "source_text": "as §1, §2"}, "[12]": {"tested_on": "bamyardgrass (Echinochloa crus-galli)", "experiment": "Test B flood test", "description": "as §2"}, "[13]": {"tested_on": "duck salad (Heteranthera limosa)", "experiment": "Test B flood test", "description": "as §2"}, "rice (Oryza sativa)": {"tested_on": "rice (Oryza sativa)", "experiment": "Test B flood test", "description": "as §2"}, "[14]": {"tested_on": "smallflower flatsedge (Cyperus difformis)", "experiment": "Test B flood test", "description": "as §2"}, "[15]": {"conditions": "Rate 62 g/ha, Postemergence (flood test)"}, "[16]": {"conditions": "Rate 125 g/ha, Postemergence section (flood test species)"}, "[17]": {"conditions": "Rate 250 g/ha, Postemergence (flood test species)"}}}
{"smiles": "CCc1cnc(-n2cnc(C(F)(F)F)c2)nc1C(=O)c1cccc(OC(F)(F)F)c1", "note": "[Compound 71]", "values": [{"measurement": "Plant response rating, Bedstraw", "setting": "[1]", "result": 1}, {"measurement": "Plant response rating, Blackgrass", "setting": "[2]; Rate 62 g/ha, scale of 0 to 10", "result": 1}, {"measurement": "Blackgrass plant response rating", "setting": "[2]; Rate 62 g/ha", "result": 2}, {"measurement": "Blackgrass plant response rating", "setting": "[2]; Rate 125 g/ha", "result": 3}, {"measurement": "Plant response rating, Blackgrass", "setting": "[2]; Rate 125 g/ha", "result": 2}, {"measurement": "B. signalgrass plant response rating", "setting": "[3]; Rate 62 g/ha, Postemergence", "result": 2}, {"measurement": "B. signalgrass plant response rating", "setting": "[3]; Rate 62 g/ha, Preemergence", "result": 0}, {"measurement": "B. signalgrass plant response rating", "setting": "[3]; Rate 125 g/ha, Postemergence", "result": 2}, {"measurement": "Plant response rating, B. signalgrass", "setting": "[3]; Rate 125 g/ha, Preemergence", "result": 2}, {"measurement": "Cocklebur plant response rating", "setting": "[4]; Rate 62 g/ha", "result": 4}, {"measurement": "Cocklebur plant response rating", "setting": "[4]; Rate 125 g/ha", "result": 4}, {"measurement": "Plant response rating, Cocklebur", "setting": "[4]; Rate 125 g/ha, Preemergence", "result": 0}, {"measurement": "Plant response rating, Corn", "setting": "corn (Zea mays); Rate 62 g/ha, scale of 0 to 10", "result": 1}, {"measurement": "Corn plant response rating", "setting": "corn (Zea mays); Rate 62 g/ha", "result": 2}, {"measurement": "Corn plant response rating", "setting": "corn (Zea mays); Rate 125 g/ha", "result": 3}, {"measurement": "Plant response rating, Corn", "setting": "corn (Zea mays); Rate 125 g/ha", "result": 1}, {"measurement": "Plant response rating, Crabgrass", "setting": "[5]; Rate 62 g/ha, scale of 0 to 10", "result": 2}, {"measurement": "Crabgrass plant response rating", "setting": "[5]; Rate 62 g/ha", "result": 2}, {"measurement": "Crabgrass plant response rating", "setting": "[5]; Rate 125 g/ha", "result": 3}, {"measurement": "Plant response rating, Crabgrass", "setting": "[5]; Rate 125 g/ha", "result": 2}, {"measurement": "Plant response rating, Giant foxtail", "setting": "[6]; Rate 62 g/ha, scale of 0 to 10", "result": 1}, {"measurement": "Giant foxtail plant response rating", "setting": "[6]; Rate 62 g/ha", "result": 2}, {"measurement": "Giant foxtail plant response rating", "setting": "[6]; Rate 125 g/ha", "result": 2}, {"measurement": "Plant response rating, Giant foxtail", "setting": "[6]; Rate 125 g/ha", "result": 2}, {"measurement": "Plant response rating, Morningglory", "setting": "[7]; Rate 62 g/ha, scale of 0 to 10", "result": 2}, {"measurement": "Morningglory plant response rating", "setting": "[7]; Rate 62 g/ha", "result": 1}, {"measurement": "Morningglory plant response rating", "setting": "[7]; Rate 125 g/ha", "result": 6}, {"measurement": "Plant response rating, Morningglory", "setting": "[7]; Rate 125 g/ha", "result": 4}, {"measurement": "Plant response rating, Redroot pigweed", "setting": "[8]; Rate 62 g/ha, scale of 0 to 10", "result": 6}, {"measurement": "Redroot pigweed plant response rating", "setting": "[8]; Rate 62 g/ha", "result": 8}, {"measurement": "Redroot pigweed plant response rating", "setting": "[8]; Rate 125 g/ha", "result": 8}, {"measurement": "Plant response rating, Redroot pigweed", "setting": "[8]; Rate 125 g/ha", "result": 8}, {"measurement": "Plant response rating, Rape", "setting": "rape (Brassica napus); Rate 62 g/ha, scale of 0 to 10", "result": 2}, {"measurement": "Rape plant response rating", "setting": "rape (Brassica napus); Rate 62 g/ha", "result": 5}, {"measurement": "Rape plant response rating", "setting": "rape (Brassica napus); Rate 125 g/ha", "result": 7}, {"measurement": "Plant response rating, Rape", "setting": "rape (Brassica napus); Rate 125 g/ha", "result": 7}, {"measurement": "Plant response rating, Soybean", "setting": "soybean (Glycine max); Rate 62 g/ha, scale of 0 to 10", "result": 0}, {"measurement": "Soybean plant response rating", "setting": "soybean (Glycine max); Rate 62 g/ha", "result": 3}, {"measurement": "Soybean plant response rating", "setting": "soybean (Glycine max); Rate 125 g/ha", "result": 4}, {"measurement": "Plant response rating, Soybean", "setting": "soybean (Glycine max); Rate 125 g/ha", "result": 0}, {"measurement": "Plant response rating, Sugarbeets", "setting": "[9]; Rate 62 g/ha, scale of 0 to 10", "result": 2}, {"measurement": "Sugarbeets plant response rating", "setting": "[9]; Rate 62 g/ha", "result": 8}, {"measurement": "Sugarbeets plant response rating", "setting": "[9]; Rate 125 g/ha", "result": 8}, {"measurement": "Plant response rating, Sugarbeets", "setting": "[9]; Rate 125 g/ha", "result": 3}, {"measurement": "Velvetleaf plant response rating", "setting": "[10]; Rate 62 g/ha", "result": 3}, {"measurement": "Velvetleaf plant response rating", "setting": "[10]; Rate 125 g/ha", "result": 6}, {"measurement": "Plant response rating, Velvetleaf", "setting": "[10]; Rate 125 g/ha, Preemergence", "result": 6}, {"measurement": "Plant response rating, Wheat", "setting": "[11]; Rate 62 g/ha, scale of 0 to 10", "result": 1}, {"measurement": "Wheat plant response rating", "setting": "[11]; Rate 62 g/ha", "result": 4}, {"measurement": "Wheat plant response rating", "setting": "[11]; Rate 125 g/ha", "result": 4}, {"measurement": "Plant response rating, Wheat", "setting": "[11]; Rate 125 g/ha", "result": 3}, {"measurement": "Plant response rating, Wild oats", "setting": "wild oat (Avena fatua); Rate 62 g/ha, scale of 0 to 10", "result": 0}, {"measurement": "Wild oats plant response rating", "setting": "wild oat (Avena fatua); Rate 62 g/ha", "result": 2}, {"measurement": "Wild oats plant response rating", "setting": "wild oat (Avena fatua); Rate 125 g/ha", "result": 2}, {"measurement": "Plant response rating, Wild oats", "setting": "wild oat (Avena fatua); Rate 125 g/ha", "result": 3}, {"measurement": "Barnyardgrass plant response rating", "setting": "[12]; [15]", "result": 2}, {"measurement": "Barnyardgrass plant response rating", "setting": "[12]; [16]", "result": 2}, {"measurement": "Plant response rating, Barnyardgrass", "setting": "[12]; [17]", "result": 3}, {"measurement": "Ducksalad plant response rating", "setting": "[13]; [15]", "result": 0}, {"measurement": "Ducksalad plant response rating", "setting": "[13]; [16]", "result": 0}, {"measurement": "Plant response rating, Ducksalad", "setting": "[13]; [17]", "result": 2}, {"measurement": "Rice plant response rating", "setting": "rice (Oryza sativa); [15]", "result": 2}, {"measurement": "Rice plant response rating", "setting": "rice (Oryza sativa); [16]", "result": 2}, {"measurement": "Plant response rating, Rice", "setting": "rice (Oryza sativa); [17]", "result": 2}, {"measurement": "S. Flatsedge plant response rating", "setting": "[14]; [15]", "result": 0}, {"measurement": "S. Flatsedge plant response rating", "setting": "[14]; [16]", "result": 2}, {"measurement": "Plant response rating, S. Flatsedge", "setting": "[14]; [17]", "result": 4}]}
